The supplement of paper PMC10307832

Columns and labels:
Assay in all cases: relative viability (nuclei count vs DMSO), 5 days (fraction); higher = more cells survive
[1] = tested on: A-427
Outline: (§1)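 Lung cancer cell lines, seeded in 1536-well plates, were treated the following day by pin tool with a single drug or with five library-drug doses (not always all listed) in √10 steps on top of a fixed anchor-drug dose. Cells were fixed and nuclei stained in one step after 5 days, and nuclei were counted. Relative viability is the nuclei count for treated wells divided by that for vehicle wells, reported as medians of duplicate plates.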

[2] = tested on: ChaGo-K-1
Outline: as §1

[3] = tested on: EKVX
Outline: as §1

[4] = tested on: H3255
Outline: as §1

[5] = tested on: LK-2
Outline: as §1

[6] = tested on: NCI-H1355
Outline: as §1

[7] = tested on: NCI-H1650
Outline: as §1

[8] = tested on: NCI-H1666
Outline: as §1

[9] = tested on: NCI-H1755
Outline: as §1

[10] = tested on: NCI-H1944
Outline: as §1

[11] = tested on: NCI-H2085
Outline: as §1

[12] = tested on: NCI-H2228
Outline: as §1

[13] = tested on: NCI-H2347
Outline: as §1

[14] = tested on: NCI-H3122
Outline: as §1

[15] = tested on: NCI-H322M
Outline: as §1

[16] = tested on: NCI-H358
Outline: as §1

[17] = tested on: NCI-H441
Outline: as §1

[18] = tested on: NCI-H460
Outline: as §1

[19] = tested on: NCI-H520
Outline: as §1

[20] = tested on: NCI-H596
Outline: as §1

[21] = tested on: NCI-H650
Outline: as §1

[22] = tested on: NCI-H838
Outline: as §1

[23] = tested on: SW 1573
Outline: as §1

Question: Which results are given for `Cc1cnc(-c2cnc(NCCNc3ccc(C#N)cn3)nc2-c2ccc(Cl)cc2Cl)[nH]1` + COc1cccc2cc(-c3nc([C@H]4CC[C@H](C(=O)O)CC4)n4ncnc(N)c34)[nH]c12 [OSI-027] (partner 0.5 µM)?
Answer: relative viability ([1]; first compound 0.08 µM): 0.547; relative viability ([1]; first compound 0.253 µM): 0.41; relative viability ([1]; first compound 0.8 µM): 0.608; relative viability ([1]; first compound 2.53 µM): 0.653; relative viability ([2]; first compound 0.08 µM): 0.608; relative viability ([2]; first compound 0.253 µM): 0.442; relative viability ([2]; first compound 0.8 µM): 0.623; relative viability ([2]; first compound 2.53 µM): 0.592; relative viability ([3]; first compound 0.08 µM): 0.768; relative viability ([3]; first compound 0.253 µM): 0.706; relative viability ([3]; first compound 0.8 µM): 0.589; relative viability ([3]; first compound 2.53 µM): 0.624; relative viability ([4]; first compound 0.08 µM): 0.745; relative viability ([4]; first compound 0.253 µM): 0.535; relative viability ([4]; first compound 0.8 µM): 0.616; relative viability ([4]; first compound 2.53 µM): 0.592; relative viability ([5]; first compound 0.08 µM): 0.204; relative viability ([5]; first compound 0.253 µM): 0.248; relative viability ([5]; first compound 0.8 µM): 0.231; relative viability ([5]; first compound 2.53 µM): 0.318; relative viability ([6]; first compound 0.08 µM): 0.404; relative viability ([6]; first compound 0.253 µM): 0.434; relative viability ([6]; first compound 0.8 µM): 0.395; relative viability ([6]; first compound 2.53 µM): 0.439; relative viability ([7]; first compound 0.08 µM): 0.75; relative viability ([7]; first compound 0.253 µM): 0.61; relative viability ([7]; first compound 0.8 µM): 0.554; relative viability ([7]; first compound 2.53 µM): 0.56; relative viability ([8]; first compound 0.08 µM): 0.828; relative viability ([8]; first compound 0.253 µM): 0.77; relative viability ([8]; first compound 0.8 µM): 0.894; relative viability ([8]; first compound 2.53 µM): 0.903; relative viability ([9]; first compound 0.08 µM): 0.81; relative viability ([9]; first compound 0.253 µM): 0.737; relative viability ([9]; first compound 0.8 µM): 0.726; relative viability ([9]; first compound 2.53 µM): 0.756; relative viability ([10]; first compound 0.08 µM): 0.422; relative viability ([10]; first compound 0.8 µM): 0.489; relative viability ([10]; first compound 2.53 µM): 0.685; relative viability ([11]; first compound 0.08 µM): 0.812; relative viability ([11]; first compound 0.253 µM): 0.786; relative viability ([11]; first compound 0.8 µM): 0.677; relative viability ([11]; first compound 2.53 µM): 0.756; relative viability ([12]; first compound 0.08 µM): 0.779; relative viability ([12]; first compound 0.253 µM): 0.807; relative viability ([12]; first compound 0.8 µM): 0.569; relative viability ([12]; first compound 2.53 µM): 0.469; relative viability ([13]; first compound 0.08 µM): 0.397; relative viability ([13]; first compound 0.253 µM): 0.415; relative viability ([13]; first compound 0.8 µM): 0.324; relative viability ([13]; first compound 2.53 µM): 0.426; relative viability ([14]; first compound 0.08 µM): 1.4; relative viability ([14]; first compound 0.8 µM): 1.05; relative viability ([14]; first compound 2.53 µM): 0.967; relative viability ([15]; first compound 0.08 µM): 0.641; relative viability ([15]; first compound 0.253 µM): 0.658; relative viability ([15]; first compound 0.8 µM): 0.45; relative viability ([15]; first compound 2.53 µM): 1.3; relative viability ([16]; first compound 0.08 µM): 0.843; relative viability ([16]; first compound 0.253 µM): 0.647; relative viability ([16]; first compound 0.8 µM): 0.771; relative viability ([16]; first compound 2.53 µM): 0.627; relative viability ([17]; first compound 0.08 µM): 0.739; relative viability ([17]; first compound 0.253 µM): 0.664; relative viability ([17]; first compound 0.8 µM): 0.453; relative viability ([17]; first compound 2.53 µM): 0.459; relative viability ([18]; first compound 0.08 µM): 0.749; relative viability ([18]; first compound 0.253 µM): 0.582; relative viability ([18]; first compound 0.8 µM): 0.675; relative viability ([18]; first compound 2.53 µM): 0.669; relative viability ([19]; first compound 0.08 µM): 0.24; relative viability ([19]; first compound 0.253 µM): 0.288; relative viability ([19]; first compound 0.8 µM): 0.274; relative viability ([19]; first compound 2.53 µM): 0.28; relative viability ([20]; first compound 0.08 µM): 0.846; relative viability ([20]; first compound 0.253 µM): 0.73; relative viability ([20]; first compound 0.8 µM): 0.483; relative viability ([20]; first compound 2.53 µM): 0.668; relative viability ([21]; first compound 0.08 µM): 0.571; relative viability ([21]; first compound 0.253 µM): 0.517; relative viability ([21]; first compound 0.8 µM): 0.582; relative viability ([21]; first compound 2.53 µM): 0.486; relative viability ([22]; first compound 0.08 µM): 0.433; relative viability ([22]; first compound 0.253 µM): 0.424; relative viability ([22]; first compound 0.8 µM): 0.46; relative viability ([22]; first compound 2.53 µM): 0.846; relative viability ([23]; first compound 0.08 µM): 0.538; relative viability ([23]; first compound 0.253 µM): 0.483; relative viability ([23]; first compound 0.8 µM): 0.33; relative viability ([23]; first compound 2.53 µM): 0.363
